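The compound was tested at five concentrations on cells cultured in 96-well plates, with a 48-hour exposure period. GI50: concentration for 50% inhibition of growth. TGI: concentration producing complete growth inhibition.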

These results are taken from PubChem BioAssay (NCI).

Among the test systems are KM20L2 colon; IGROV1 ovarian; EKVX NSCLC; HT29 colon; NCI-H226 lung; NCI/ADR-RES ovarian; SR leukemia; OVCAR-4 ovarian; SNB-19 CNS.
Test in all cases: growth of human tumour cells (NCI), 48 h

For the compound `O=S1c2ccccc2N=C(c2ccc3ccccc3c2)CC1C1=CC=CCC1` (centres undefined), the TGI with KM20L2 colon is 37.2 µM; with IGROV1 ovarian it was 28.9 µM; with EKVX NSCLC, 42.8 µM; in the assay with HT29 colon, 31.4 µM; with NCI-H226 lung, 43.9 µM.

`N#C/C(=C\c1ccc(-c2ccc(Cl)cc2)o1)C(=O)Nc1ncc(Cc2ccc(Cl)cc2)s1`: the GI50 with NCI/ADR-RES ovarian is 1.87 µM; in the assay on SR leukemia, 0.772 µM; with IGROV1 ovarian, 2.2 µM; in the assay with OVCAR-4 ovarian it was 0.422 µM; with EKVX NSCLC, 2 µM; in the assay with HT29 colon it was 3.42 µM. In addition, the GI50 is 2.77 µM in the assay on SNB-19 CNS and 2.08 µM in the assay with NCI-H226 lung. The TGI is 6.31 µM with NCI/ADR-RES ovarian; 6.48 µM in the assay on SR leukemia; 5.99 µM with IGROV1 ovarian; 2.01 µM in the assay with OVCAR-4 ovarian; 5.16 µM with EKVX NSCLC; > 100 µM with HT29 colon. In addition, the TGI is 12.8 µM in the assay with SNB-19 CNS and 5.41 µM with NCI-H226 lung.

With `Oc1ccc(-c2nnc3sc(-c4ccc(F)c(Oc5ccccc5)c4)nn23)cc1`, the GI50 is 66.5 µM in the assay on NCI/ADR-RES ovarian; 29.9 µM in the assay on SR leukemia; 47.4 µM with IGROV1 ovarian; > 100 µM in the assay on OVCAR-4 ovarian; 34.8 µM with EKVX NSCLC; 27.4 µM in the assay on HT29 colon. Besides, the GI50 in the assay on SNB-19 CNS was 34.6 µM; in the assay on NCI-H226 lung it was 24.6 µM. Moreover, the TGI with NCI/ADR-RES ovarian, with SR leukemia, with IGROV1 ovarian, in the assay on OVCAR-4 ovarian, in the assay with EKVX NSCLC and in the assay with HT29 colon was > 100 µM throughout. Also, the figures for the TGI with SNB-19 CNS and in the assay with NCI-H226 lung were > 100 µM and 98.4 µM, respectively.

For the compound `Cn1ccnc1C(=O)/C=C/c1ccc(C(=O)Nc2ccc(Cl)cc2)cc1`, the GI50 in the assay with NCI/ADR-RES ovarian was 1.06 µM; in the assay with SR leukemia it was 0.255 µM; in the assay with IGROV1 ovarian, 0.855 µM; with OVCAR-4 ovarian it was 0.981 µM; in the assay with EKVX NSCLC, 2.34 µM; with HT29 colon it was 0.946 µM. Further, the GI50 in the assay with SNB-19 CNS was 0.987 µM; in the assay on NCI-H226 lung, 3.11 µM. Also, the TGI in the assay with NCI/ADR-RES ovarian was > 33.3 µM; in the assay with SR leukemia it was 1.56 µM; in the assay with IGROV1 ovarian, 2.62 µM; in the assay on OVCAR-4 ovarian it was > 33.3 µM; in the assay with EKVX NSCLC it was 22 µM; in the assay with HT29 colon, > 33.3 µM. Besides, the TGI is > 33.3 µM with SNB-19 CNS and 18 µM in the assay on NCI-H226 lung.

Turning to `Cc1ccc(NC(=O)CCC(CC(=O)C(C)(C)C)=NNC(=O)C(=O)NN)cc1C`, the TGI in the assay on KM20L2 colon, in the assay on IGROV1 ovarian, in the assay on OVCAR-4 ovarian, in the assay with EKVX NSCLC, with HT29 colon and in the assay with SNB-19 CNS was > 100 µM in each case. Moreover, the TGI in the assay with NCI-H226 lung was > 100 µM.

Turning to `Cn1cc(-c2nc(-c3c[nH]c4ncccc34)cs2)c2cc(F)ccc21`, the GI50 with NCI/ADR-RES ovarian was 2.47 µM; in the assay on SR leukemia it was 2.44 µM; in the assay on IGROV1 ovarian, 2.51 µM; with OVCAR-4 ovarian, 0.0689 µM; with EKVX NSCLC it was 0.6 µM; with HT29 colon it was 2.1 µM. The GI50 in the assay with SNB-19 CNS was 3.82 µM; in the assay with NCI-H226 lung it was 4.63 µM. Besides, the TGI was 7.66 µM in the assay on NCI/ADR-RES ovarian; 7.8 µM with SR leukemia; 13.1 µM in the assay on IGROV1 ovarian; 22.2 µM with OVCAR-4 ovarian; 10.5 µM in the assay with EKVX NSCLC; 4.53 µM in the assay on HT29 colon. Also, the TGI in the assay on SNB-19 CNS worked out at 20 µM; with NCI-H226 lung, 25.9 µM.

As for `Cc1cc(N2CCCCC2)nc(N(CCCNc2ccnc3cc(Cl)ccc23)Cc2ccco2)n1`, the GI50 with NCI/ADR-RES ovarian was 1.43 µM; in the assay on SR leukemia, 1.69 µM; in the assay on IGROV1 ovarian, 1.82 µM; in the assay with OVCAR-4 ovarian, 2.69 µM; in the assay on EKVX NSCLC, 2.42 µM; in the assay with HT29 colon, 1.2 µM. For the same compound, the figures for the GI50 in the assay on SNB-19 CNS and in the assay on NCI-H226 lung were 2.93 µM and 2.9 µM, respectively. Further, the TGI was 3.87 µM in the assay on NCI/ADR-RES ovarian; 4.71 µM in the assay with SR leukemia; 6.57 µM in the assay on IGROV1 ovarian; 14.3 µM with OVCAR-4 ovarian; 11.7 µM in the assay with EKVX NSCLC; 4.95 µM with HT29 colon. For the same compound, the TGI with SNB-19 CNS is 13.5 µM; in the assay with NCI-H226 lung, 11.8 µM.

On to `COc1cccc(C2c3cc4c(cc3OC(C)(O)C2C)OCO4)c1O` (centres undefined), for which the TGI with NCI/ADR-RES ovarian was 6.4 µM; with SR leukemia it was > 42.1 µM; with IGROV1 ovarian, 69.2 µM; in the assay on OVCAR-4 ovarian, > 96.1 µM; in the assay with EKVX NSCLC it was > 100 µM; in the assay on HT29 colon, 17.4 µM. The TGI with SNB-19 CNS was > 100 µM; in the assay with NCI-H226 lung it was 18.7 µM.

With `Cn1nccc1Nc1nccc(-c2cc3c(s2)C(C)(C)N(CCN2CCOCC2)C3=O)n1`, the GI50 in the assay on NCI/ADR-RES ovarian was 56 µM; with SR leukemia, 23 µM; with IGROV1 ovarian it was 2.15 µM; in the assay on OVCAR-4 ovarian, 24 µM; in the assay on EKVX NSCLC, 3.1 µM; in the assay on HT29 colon it was 0.277 µM. In addition, the GI50 in the assay on SNB-19 CNS was 41.9 µM; in the assay with NCI-H226 lung, 20.2 µM. Moreover, the TGI with NCI/ADR-RES ovarian, in the assay on SR leukemia, in the assay on IGROV1 ovarian, in the assay with OVCAR-4 ovarian, in the assay with EKVX NSCLC and in the assay on HT29 colon was > 100 µM each time. Also, the TGI with SNB-19 CNS and in the assay with NCI-H226 lung was > 100 µM throughout.

For the compound `CN(C)c1ccc(N2Cc3ccccc3OC3=C2C(=O)c2c(O)ccc(O)c2C3=O)cn1`, the GI50 in the assay with NCI/ADR-RES ovarian was 0.284 µM; in the assay on SR leukemia it was 0.127 µM; in the assay with IGROV1 ovarian, 0.28 µM; with OVCAR-4 ovarian, 0.33 µM; with EKVX NSCLC it was 0.242 µM; in the assay on HT29 colon it was 0.232 µM. Further, the GI50 in the assay with SNB-19 CNS is 0.563 µM; in the assay on NCI-H226 lung, 0.854 µM. The TGI with SR leukemia is > 100 µM; in the assay with IGROV1 ovarian, 1 µM; in the assay with OVCAR-4 ovarian it was 1.29 µM; in the assay on EKVX NSCLC, 1.21 µM; in the assay on HT29 colon, 0.578 µM; in the assay on SNB-19 CNS it was 2.24 µM. In the assay on NCI-H226 lung, this compound gave a TGI of 3.66 µM.

Regarding `COc1cc(O)c2c(O)c3c(c4c2c1[C@]1(C4)C(C)=CCCC1(C)C)[C@H](O)[C@@]1(O)CC(=O)C(C(N)=O)=C(O)[C@@]1(O)C3=O`, the TGI in the assay on NCI/ADR-RES ovarian worked out at 1.5 µM; with SR leukemia, 1.45 µM; in the assay on IGROV1 ovarian, 1.94 µM; in the assay with OVCAR-4 ovarian, 1.39 µM; with EKVX NSCLC, 1.06 µM; with HT29 colon, 1.08 µM. In addition, the TGI with SNB-19 CNS turned out to be 1.94 µM; in the assay with NCI-H226 lung it was 0.951 µM.
